Measured values taken from patent US20240269139A1, “COMPOUNDS FOR TARGETED PROTEIN DEGRADATION OF KINASES” (DANA-FARBER CANCER INSTITUTE, INC., priority 2020, published 2024).
Like-named read-outs stand apart in the source and are kept apart here.

What was measured:
Format in all cases: cell-based
[1] = biological target: T1, protein kinases (human kinome) (Homo sapiens, UniProt O14976)
T1 sequence (O14976 1-1311): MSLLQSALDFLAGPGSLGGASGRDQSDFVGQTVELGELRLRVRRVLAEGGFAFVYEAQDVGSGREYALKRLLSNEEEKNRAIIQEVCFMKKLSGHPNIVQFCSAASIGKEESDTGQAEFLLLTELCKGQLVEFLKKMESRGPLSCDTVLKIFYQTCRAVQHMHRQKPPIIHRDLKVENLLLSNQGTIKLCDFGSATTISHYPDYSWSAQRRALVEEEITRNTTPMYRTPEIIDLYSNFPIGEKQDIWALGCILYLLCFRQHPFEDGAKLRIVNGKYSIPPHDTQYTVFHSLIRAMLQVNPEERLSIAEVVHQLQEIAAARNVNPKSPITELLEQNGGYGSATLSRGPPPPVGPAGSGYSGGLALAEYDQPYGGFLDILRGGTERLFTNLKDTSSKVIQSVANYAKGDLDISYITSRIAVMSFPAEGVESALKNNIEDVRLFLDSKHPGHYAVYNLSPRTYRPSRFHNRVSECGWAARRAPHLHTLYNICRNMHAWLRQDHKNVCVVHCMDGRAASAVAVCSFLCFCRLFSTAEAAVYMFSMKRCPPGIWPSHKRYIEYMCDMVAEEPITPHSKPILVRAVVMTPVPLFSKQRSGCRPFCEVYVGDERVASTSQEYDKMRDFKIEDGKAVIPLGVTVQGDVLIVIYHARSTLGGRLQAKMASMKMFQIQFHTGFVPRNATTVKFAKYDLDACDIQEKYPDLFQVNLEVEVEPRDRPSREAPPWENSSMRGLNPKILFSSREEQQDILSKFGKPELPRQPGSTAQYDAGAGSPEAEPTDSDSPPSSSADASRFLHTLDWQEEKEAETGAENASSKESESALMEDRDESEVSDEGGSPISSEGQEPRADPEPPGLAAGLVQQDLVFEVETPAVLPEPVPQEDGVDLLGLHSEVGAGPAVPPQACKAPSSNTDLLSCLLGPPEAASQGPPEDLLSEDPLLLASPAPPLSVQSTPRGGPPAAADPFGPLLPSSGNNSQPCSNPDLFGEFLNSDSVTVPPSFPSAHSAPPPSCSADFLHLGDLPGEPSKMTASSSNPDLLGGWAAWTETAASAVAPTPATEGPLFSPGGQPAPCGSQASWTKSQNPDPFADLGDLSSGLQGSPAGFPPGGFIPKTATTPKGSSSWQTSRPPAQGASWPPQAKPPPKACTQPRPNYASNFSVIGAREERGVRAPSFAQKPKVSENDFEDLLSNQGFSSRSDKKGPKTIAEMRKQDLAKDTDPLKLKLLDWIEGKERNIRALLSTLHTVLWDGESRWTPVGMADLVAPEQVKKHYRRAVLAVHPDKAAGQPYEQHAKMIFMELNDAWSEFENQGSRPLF

[2] = biological target: protein kinases (human kinome) (Homo sapiens, UniProt P11802)
Sequence of protein kinases (human kinome) (Homo sapiens, UniProt P11802) (P11802 whole entry): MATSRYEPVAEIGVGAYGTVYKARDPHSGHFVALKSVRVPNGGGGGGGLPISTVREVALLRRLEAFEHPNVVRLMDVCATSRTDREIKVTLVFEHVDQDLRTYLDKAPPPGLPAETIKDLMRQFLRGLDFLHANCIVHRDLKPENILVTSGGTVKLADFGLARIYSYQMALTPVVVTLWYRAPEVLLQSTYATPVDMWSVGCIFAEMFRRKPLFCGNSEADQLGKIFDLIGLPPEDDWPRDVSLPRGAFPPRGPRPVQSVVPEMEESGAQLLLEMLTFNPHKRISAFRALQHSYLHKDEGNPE

[3] = biological target: protein kinases (human kinome) (Homo sapiens, UniProt P16591); conditions: for logFC of FER (P16591-1): down; for logFC of FER: FER P16591-1
Sequence of protein kinases (human kinome) (Homo sapiens, UniProt P16591) (P16591 whole entry): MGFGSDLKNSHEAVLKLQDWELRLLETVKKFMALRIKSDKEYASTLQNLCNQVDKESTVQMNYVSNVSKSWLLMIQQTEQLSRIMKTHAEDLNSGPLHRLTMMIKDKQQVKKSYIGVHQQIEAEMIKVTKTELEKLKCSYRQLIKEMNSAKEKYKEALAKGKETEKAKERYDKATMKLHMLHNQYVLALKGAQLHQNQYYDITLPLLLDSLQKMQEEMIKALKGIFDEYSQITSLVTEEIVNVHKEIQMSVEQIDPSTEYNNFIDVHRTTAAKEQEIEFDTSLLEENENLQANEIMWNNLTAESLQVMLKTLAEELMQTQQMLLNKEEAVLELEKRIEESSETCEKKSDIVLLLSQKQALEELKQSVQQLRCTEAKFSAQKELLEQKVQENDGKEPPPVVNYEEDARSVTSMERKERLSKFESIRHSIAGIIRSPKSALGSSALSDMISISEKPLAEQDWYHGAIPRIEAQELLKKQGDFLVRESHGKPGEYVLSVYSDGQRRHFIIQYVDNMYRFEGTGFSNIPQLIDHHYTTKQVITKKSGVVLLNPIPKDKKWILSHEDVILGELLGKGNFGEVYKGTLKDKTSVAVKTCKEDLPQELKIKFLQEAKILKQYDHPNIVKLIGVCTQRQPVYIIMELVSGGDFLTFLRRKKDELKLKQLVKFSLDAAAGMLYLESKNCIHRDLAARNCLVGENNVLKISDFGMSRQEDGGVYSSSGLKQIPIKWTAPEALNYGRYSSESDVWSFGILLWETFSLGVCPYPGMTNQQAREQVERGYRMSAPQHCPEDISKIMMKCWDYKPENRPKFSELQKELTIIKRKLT

[4] = biological target: protein kinases (human kinome) (Homo sapiens, UniProt P51451); conditions: for logFC BLK: BLK (P51451), direction down; for logFC of BLK (P51451): down; for logFC of BLK: BLK P51451
Sequence of protein kinases (human kinome) (Homo sapiens, UniProt P51451) (P51451 whole entry): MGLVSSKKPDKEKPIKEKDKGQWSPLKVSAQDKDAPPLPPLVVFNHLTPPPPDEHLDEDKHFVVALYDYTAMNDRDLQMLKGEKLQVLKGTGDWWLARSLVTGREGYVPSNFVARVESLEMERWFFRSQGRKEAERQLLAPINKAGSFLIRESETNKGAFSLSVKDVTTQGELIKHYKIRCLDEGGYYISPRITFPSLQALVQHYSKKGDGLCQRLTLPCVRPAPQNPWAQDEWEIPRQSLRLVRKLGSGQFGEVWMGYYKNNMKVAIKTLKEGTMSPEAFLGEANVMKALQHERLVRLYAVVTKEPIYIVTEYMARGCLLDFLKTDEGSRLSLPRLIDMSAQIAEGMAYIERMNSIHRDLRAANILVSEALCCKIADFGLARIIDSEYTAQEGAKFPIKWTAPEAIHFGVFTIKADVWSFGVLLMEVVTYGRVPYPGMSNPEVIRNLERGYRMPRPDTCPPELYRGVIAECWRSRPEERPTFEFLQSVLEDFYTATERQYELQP

[5] = biological target: protein kinases (human kinome) (Homo sapiens, UniProt Q2M2I8); conditions: experiment wp195
Sequence of protein kinases (human kinome) (Homo sapiens, UniProt Q2M2I8) (Q2M2I8 whole entry): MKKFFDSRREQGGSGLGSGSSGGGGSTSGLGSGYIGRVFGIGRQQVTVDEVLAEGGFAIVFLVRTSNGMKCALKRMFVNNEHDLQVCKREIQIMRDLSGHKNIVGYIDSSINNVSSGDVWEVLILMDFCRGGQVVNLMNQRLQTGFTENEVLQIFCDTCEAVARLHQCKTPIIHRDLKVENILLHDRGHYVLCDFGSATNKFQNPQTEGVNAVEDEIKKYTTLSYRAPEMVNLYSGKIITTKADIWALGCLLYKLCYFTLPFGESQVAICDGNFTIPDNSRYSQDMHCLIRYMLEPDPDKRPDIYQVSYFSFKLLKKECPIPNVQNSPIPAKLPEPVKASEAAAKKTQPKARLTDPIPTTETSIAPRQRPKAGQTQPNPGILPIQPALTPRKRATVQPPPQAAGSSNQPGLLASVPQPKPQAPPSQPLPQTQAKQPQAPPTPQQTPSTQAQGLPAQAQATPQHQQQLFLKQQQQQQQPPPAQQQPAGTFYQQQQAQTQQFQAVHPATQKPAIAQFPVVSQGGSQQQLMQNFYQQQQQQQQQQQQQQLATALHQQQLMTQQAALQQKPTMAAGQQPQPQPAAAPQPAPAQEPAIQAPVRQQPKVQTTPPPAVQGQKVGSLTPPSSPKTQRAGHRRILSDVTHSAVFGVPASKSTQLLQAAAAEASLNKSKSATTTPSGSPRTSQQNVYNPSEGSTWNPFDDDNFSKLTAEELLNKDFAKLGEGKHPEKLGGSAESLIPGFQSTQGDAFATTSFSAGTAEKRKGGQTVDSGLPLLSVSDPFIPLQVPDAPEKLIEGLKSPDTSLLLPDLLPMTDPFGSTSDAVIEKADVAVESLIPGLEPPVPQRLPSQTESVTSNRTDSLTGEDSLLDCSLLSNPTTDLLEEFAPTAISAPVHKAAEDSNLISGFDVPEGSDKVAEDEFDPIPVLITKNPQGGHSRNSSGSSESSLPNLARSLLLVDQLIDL

[6] = biological target: protein kinases (human kinome) (Homo sapiens, UniProt Q00534); conditions: for logFC CDK6: CDK6 (Q00534), direction down; for logFC of CDK6 (Q00534): down
Sequence of protein kinases (human kinome) (Homo sapiens, UniProt Q00534) (Q00534 whole entry): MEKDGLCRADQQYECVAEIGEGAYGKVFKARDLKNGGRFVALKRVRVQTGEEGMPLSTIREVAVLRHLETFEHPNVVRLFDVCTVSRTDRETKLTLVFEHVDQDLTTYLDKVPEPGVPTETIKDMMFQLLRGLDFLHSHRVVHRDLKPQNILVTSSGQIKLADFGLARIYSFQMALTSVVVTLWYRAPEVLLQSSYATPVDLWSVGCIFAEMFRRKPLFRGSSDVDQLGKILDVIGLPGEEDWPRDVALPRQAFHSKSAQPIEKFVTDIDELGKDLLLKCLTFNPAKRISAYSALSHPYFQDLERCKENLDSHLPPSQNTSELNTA

[7] = GAK (O14976), experiment wp168, down
[8] = GAK (O14976), experiment wp195, down
[9] = GAK, accession O14976, experiment wp195, direction of change down
[10] = AAK1, accession Q2M218-1, direction of change down

## Cc1ccc(NC(=O)c2cccc(C(F)(F)F)c2)cc1N1Cc2cnc(Nc3ccc(N4CCN(CCCCC(=O)N[C@H](C(=O)N5C[C@H](O)C[C@H]5C(=O)N[C@@H](C)c5ccc(-c6scnc6C)cc5)C(C)(C)C)CC4)nc3)nc2N(C)C1=O [DB1113]
[1]; [7]
  logFC GAK: −1.029
[1]; GAK, accession O14976, experiment wp168, direction of change down
  logFC GAK: −1.029
[2]; experiment wp168
  logFC CDK4 (P11802): −0.4373
[3]; Experiment wp168
  logFC of FER (P16591-1): −1.118
[3]; experiment wp168
  logFC of FER: −1.118
[4]; experiment wp168
  logFC BLK: −1.32
[4]; Experiment wp168
  logFC of BLK (P51451): −1.32

## Cc1cnc(Nc2ccc(N3CCN(CCCCCCC(=O)N[C@H](C(=O)N4C[C@H](O)C[C@H]4C(=O)N[C@@H](C)c4ccc(-c5scnc5C)cc4)C(C)(C)C)CC3)cc2)nc1Nc1cccc(S(=O)(=O)NC(C)(C)C)c1 [JWG.123]
[1]; [8]
  logFC GAK: −0.5246
[1]; [9]
  logFC GAK: −0.5246
[5]; AAK1 (Q2M218-1), down
  logFC AAK1: −1.091
[5]; [10]
  logFC AAK1: −1.091

## Cc1ccc(C(=O)Nc2ccc(CN3CCN(CCOCCOCCNC(=O)CNc4cccc5c4C(=O)N(C4CCC(=O)NC4=O)C5=O)CC3)c(C(F)(F)F)c2)cc1C#Cc1cnc2cccnn12 (stereo not shown) [TL13.150]
[1]; Experiment wp081, down
  logFC of GAK (O14976): −1.014
[1]; GAK (O14976), direction down, experiment wp081
  logFC GAK: −1.014
[3]; Experiment wp081
  logFC of FER (P16591-1): −1.511
[3]; experiment wp081
  logFC of FER: −1.511
[4]; experiment wp081
  logFC BLK: −1.435
[4]; Experiment wp081
  logFC of BLK (P51451): −1.435

## CN(C)C(=O)c1cc2cnc(Nc3ccc(N4CCN(CCCCNC(=O)COc5cccc6c5C(=O)N(C5CCC(=O)NC5=O)C6=O)CC4)cn3)nc2n1C1CCCC1 (stereo not shown) [BSJ.04.132]
[2]; experiment wp084
  logFC CDK4 (P11802): −0.9046
[6]; experiment wp084
  logFC CDK6: −0.7531
[6]; Experiment wp084
  logFC of CDK6 (Q00534): −0.7531

## Cc1ccc(NC(=O)c2cccc(C(F)(F)F)c2)cc1N1Cc2cnc(Nc3ccc(N4CCN(CCCCCCOc5cccc6c5C(=O)N(C5CCC(=O)NC5=O)C6=O)CC4)nc3)nc2N(C)C1=O (stereo not shown) [DB0663]
[1]; Experiment wp045, down
  logFC of GAK (O14976): −0.691
[1]; GAK (O14976), direction down, experiment wp045
  logFC GAK: −0.691
[2]; experiment wp045
  logFC CDK4 (P11802): −0.6823
[3]; Experiment wp045
  logFC of FER (P16591-1): −0.9581
[3]; experiment wp045
  logFC of FER: −0.9581
[4]; experiment wp045
  logFC of BLK: −1.058
[4]; Experiment wp045
  logFC of BLK (P51451): −1.058

## C[C@@H]1C[C@@H](O)c2ncnc(N3CCN(C(=O)[C@H](CNCCCCCCCCCCc4cccc5c4C(=O)N(C4CCC(=O)NC4=O)C5=O)c4ccc(Cl)cc4)CC3)c21 (stereo partly shown) [INY.03.041.01]
[2]; experiment wp118
  logFC CDK4 (P11802): −0.4019

## Cc1ncsc1-c1ccc([C@H](C)NC(=O)[C@@H]2C[C@@H](O)CN2C(=O)[C@@H](NC(=O)CCCCCN2CCc3cc(Nc4ncc(C5CC5)c(NCCCNC(=O)C5CCC5)n4)ccc3C2)C(C)(C)C)cc1 [BSJ.05.026]
[1]; [8]
  logFC GAK: −0.5819
[1]; [9]
  logFC GAK: −0.6819
[5]; AAK1 (Q2M218-1), down
  logFC AAK1: −3.073
[5]; [10]
  logFC AAK1: −3.073

## Cc1ccc(NC(=O)c2cccc(C(F)(F)F)c2)cc1N1Cc2cnc(Nc3ccc(N4CCN(CCCOc5cccc6c5C(=O)N(C5CCC(=O)NC5=O)C6=O)CC4)nc3)nc2N(C)C1=O (stereo not shown) [DB0662]
[1]; GAK (O14976), direction down, experiment wp168
  logFC GAK: −0.4373
[1]; [7]
  logFC GAK: −0.4373
[2]; experiment wp168
  logFC CDK4 (P11802): −0.9883
[3]; Experiment wp168
  logFC of FER (P16591-1): −1.481
[3]; experiment wp168
  logFC of FER: −1.481
[4]; experiment wp168
  logFC BLK: −1.652
[4]; Experiment wp168
  logFC of BLK (P51451): −1.652

## Cc1ccc(C(=O)Nc2ccc(CN3CCN(CCCOCCOCCOCCNC(=O)COc4cccc5c4C(=O)N(C4CCC(=O)NC4=O)C5=O)CC3)c(C(F)(F)F)c2)cc1C#Cc1cnc2cccnn12 (stereo not shown) [SB1.G.187]
[1]; Experiment wp056, down
  logFC of GAK (O14976): −1.543
[1]; Experiment wp103, down
  logFC of GAK (O14976): −1.478
[1]; Experiment wp105, down
  logFC of GAK (O14976): −1.088
[1]; Experiment wp107, down
  logFC of GAK (O14976): −1.768
[1]; Experiment wp114, down
  logFC of GAK (O14976): −0.3578
[1]; GAK (O14976), direction down, experiment wp056
  logFC GAK: −1.543
[1]; GAK (O14976), direction down, experiment wp103
  logFC GAK: −1.478
[1]; GAK (O14976), direction down, experiment wp105
  logFC GAK: −1.088
[1]; GAK (O14976), direction down, experiment wp107
  logFC GAK: −1.768
[1]; GAK (O14976), direction down, experiment wp114
  logFC GAK: −0.3578
[1]; GAK (O14976), experiment wp172, down
  logFC GAK: −1.007
[1]; GAK, accession O14976, experiment wp172, direction of change down
  logFC GAK: −1.007
[3]; Experiment wp056
  logFC of FER (P16591-1): −1.267
[3]; Experiment wp103
  logFC of FER (P16591-1): −1.672
[3]; Experiment wp105
  logFC of FER (P16591-1): −1.432
[3]; Experiment wp107
  logFC of FER (P16591-1): −1.76
[3]; experiment wp056
  logFC of FER: −1.267
[3]; experiment wp103
  logFC of FER: −1.672
[3]; experiment wp105
  logFC of FER: −1.432
[3]; experiment wp107
  logFC of FER: −1.76
[4]; experiment wp103
  logFC BLK: −2.098
[4]; experiment wp107
  logFC BLK: −1.916
[4]; experiment wp056
  logFC of BLK: −2.021
[4]; Experiment wp056
  logFC of BLK (P51451): −2.021
[4]; Experiment wp103
  logFC of BLK (P51451): −2.098
[4]; Experiment wp107
  logFC of BLK (P51451): −1.916
[6]; experiment wp103
  logFC CDK6: −0.346
[6]; Experiment wp103
  logFC of CDK6 (Q00534): −0.346

## CC(=O)c1c(C)c2cnc(Nc3ccc(N4CCN(CCOCCOCCOCCNC(=O)COc5cccc6c5C(=O)N(C5CCC(=O)NC5=O)C6=O)CC4)cn3)nc2n(C2CCCC2)c1=O (stereo not shown) [BSJ.03.123]
[2]; experiment wp084
  logFC CDK4 (P11802): −0.9496
[6]; experiment wp084
  logFC CDK6: −3.058
[6]; Experiment wp084
  logFC of CDK6 (Q00534): −3.058
